Assay results: the supplement of paper PMC11451515

Legend:
Conditions in all cases: 48 h
NOMO1 [1] = test: AUC of viability dose-response curve (% viability x log10 dose units); higher = less sensitive
Summary of the method: (§1)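 Viability of medium-adapted leukemia cells was measured by CellTiter-Glo One luminescence after 48 h at 37°C with library compounds in DMSO. Doses were 11 threefold steps from 47 μM to 0.79 nM, in 1536-well plates at 500 or 1000 cells/well. Signals were normalised per plate to DMSO and cell-free wells and fitted with a four-parameter log-logistic model on log10 dose. Area under the curve was integrated by trapezoidal rule, with curves exceeding full viability scaled and failed quality-control curves removed.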

SEM cells [2] = test: as above
Summary of the method: as §1

P12-Ichikawa [3] = test: as above
Summary of the method: as §1

NOMO1 [4] = test: cell viability relative to DMSO control; higher = less cytotoxic
Summary of the method: (§2)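 NOMO1 or SEM (500 cells/well) or P12-Ichikawa (1000 cells/well) leukemia cells were adapted for at least four passages in each medium. They were seeded in 1536-well plates (5 μl) and pin-dosed with library compounds in DMSO over an 11-point threefold series, 47 μM to 0.79 nM. CellTiter-Glo One luminescence was read after 48 h at 37°C. Viability is the per-plate percentage relative to DMSO wells, with cell-free wells as background.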

SEM cells [5] = test: as above
Summary of the method: as §2

P12-Ichikawa [6] = test: as above
Summary of the method: as §2

[7] = RPMI 5 mM glucose + 10% dialyzed FBS
[8] = HPLM + 10% dialyzed FBS, 0.000781 µM
[9] = HPLM + 10% dialyzed FBS, 0.00234 µM
[10] = HPLM + 10% dialyzed FBS, 0.00702 µM
[11] = HPLM + 10% dialyzed FBS, 0.0211 µM
[12] = HPLM + 10% dialyzed FBS, 0.0632 µM
[13] = HPLM + 10% dialyzed FBS, 0.19 µM
[14] = HPLM + 10% dialyzed FBS, 0.569 µM
[15] = HPLM + 10% dialyzed FBS, 1.71 µM
[16] = HPLM + 10% dialyzed FBS, 5.12 µM
[17] = HPLM + 10% dialyzed FBS, 15.4 µM
[18] = HPLM + 10% dialyzed FBS, 46.1 µM
[19] = RPMI 5 mM glucose + 10% FBS, 0.000781 µM
[20] = RPMI 5 mM glucose + 10% FBS, 0.00234 µM
[21] = RPMI 5 mM glucose + 10% FBS, 0.00702 µM
[22] = RPMI 5 mM glucose + 10% FBS, 0.0211 µM
[23] = RPMI 5 mM glucose + 10% FBS, 0.0632 µM
[24] = RPMI 5 mM glucose + 10% FBS, 0.19 µM
[25] = RPMI 5 mM glucose + 10% FBS, 0.569 µM
[26] = RPMI 5 mM glucose + 10% FBS, 1.71 µM
[27] = RPMI 5 mM glucose + 10% FBS, 5.12 µM
[28] = RPMI 5 mM glucose + 10% FBS, 15.4 µM
[29] = RPMI 5 mM glucose + 10% FBS, 46.1 µM
[30] = RPMI 5 mM glucose + 10% dialyzed FBS, 0.000781 µM
[31] = RPMI 5 mM glucose + 10% dialyzed FBS, 0.00234 µM
[32] = RPMI 5 mM glucose + 10% dialyzed FBS, 0.00702 µM
[33] = RPMI 5 mM glucose + 10% dialyzed FBS, 0.0211 µM
[34] = RPMI 5 mM glucose + 10% dialyzed FBS, 0.0632 µM
[35] = RPMI 5 mM glucose + 10% dialyzed FBS, 0.19 µM
[36] = RPMI 5 mM glucose + 10% dialyzed FBS, 0.569 µM
[37] = RPMI 5 mM glucose + 10% dialyzed FBS, 1.71 µM
[38] = RPMI 5 mM glucose + 10% dialyzed FBS, 5.12 µM
[39] = RPMI 5 mM glucose + 10% dialyzed FBS, 15.4 µM
[40] = RPMI 5 mM glucose + 10% dialyzed FBS, 46.1 µM

CC(C)C1NC(=O)C(NC(=O)C2=C3\N=C\4/C(=C(C)\C(=O)\C(=C4C(=O)NC5C(C)OC(=O)C(C(C)C)N(C)C(=O)CN(C)C(=O)C6CCCN6C(=O)C(NC5=O)C(C)C)N)OC3=C(C)C=C2)C(C)OC(=O)C(C(C)C)N(C)C(=O)CN(C)C(=O)C7CCCN7C1=O (centres undefined)
AUC of viability dose-response curve (NOMO1 [1]; HPLM + 10% dialyzed FBS): 27.9 | AUC of viability dose-response curve (NOMO1 [1]; RPMI 5 mM glucose + 10% FBS): 28.1 | AUC of viability dose-response curve (NOMO1 [1]; [7]): 23 | AUC of viability dose-response curve (SEM cells [2]; HPLM + 10% dialyzed FBS): 26.3 | AUC of viability dose-response curve (SEM cells [2]; RPMI 5 mM glucose + 10% FBS): 20.8 | AUC of viability dose-response curve (SEM cells [2]; [7]): 23.4 | AUC of viability dose-response curve (P12-Ichikawa [3]; HPLM + 10% dialyzed FBS): 31.2 | AUC of viability dose-response curve (P12-Ichikawa [3]; RPMI 5 mM glucose + 10% FBS): 24.5 | AUC of viability dose-response curve (P12-Ichikawa [3]; [7]): 38 | cell viability (NOMO1 [4]; [8]): 7.64% | cell viability (NOMO1 [4]; [9]): 9.4% | cell viability (NOMO1 [4]; [10]): 7.42% | cell viability (NOMO1 [4]; [11]): 5.43% | cell viability (NOMO1 [4]; [12]): 6.88% | cell viability (NOMO1 [4]; [13]): 5.51% | cell viability (NOMO1 [4]; [14]): 6.57% | cell viability (NOMO1 [4]; [15]): 6.12% | cell viability (NOMO1 [4]; [16]): 3.81% | cell viability (NOMO1 [4]; [17]): 2.42% | cell viability (NOMO1 [4]; [18]): 2.47% | cell viability (NOMO1 [4]; [19]): 7.96% | cell viability (NOMO1 [4]; [20]): 9.36% | cell viability (NOMO1 [4]; [21]): 7.73% | cell viability (NOMO1 [4]; [22]): 5.14% | cell viability (NOMO1 [4]; [23]): 6.66% | cell viability (NOMO1 [4]; [24]): 5.99% | cell viability (NOMO1 [4]; [25]): 5.54% | cell viability (NOMO1 [4]; [26]): 6.58% | cell viability (NOMO1 [4]; [27]): 4.43% | cell viability (NOMO1 [4]; [28]): 2.79% | cell viability (NOMO1 [4]; [29]): 1.97% | cell viability (NOMO1 [4]; [30]): 5.95% | cell viability (NOMO1 [4]; [31]): 8.79% | cell viability (NOMO1 [4]; [32]): 6.56% | cell viability (NOMO1 [4]; [33]): 5.07% | cell viability (NOMO1 [4]; [34]): 5.04% | cell viability (NOMO1 [4]; [35]): 5.51% | cell viability (NOMO1 [4]; [36]): 4.5% | cell viability (NOMO1 [4]; [37]): 3.94% | cell viability (NOMO1 [4]; [38]): 3.31% | cell viability (NOMO1 [4]; [39]): 2.14% | cell viability (NOMO1 [4]; [40]): 2% | cell viability (SEM cells [5]; [8]): 8.02% | cell viability (SEM cells [5]; [9]): 8.45% | cell viability (SEM cells [5]; [10]): 8.63% | cell viability (SEM cells [5]; [11]): 7.17% | cell viability (SEM cells [5]; [12]): 5.33% | cell viability (SEM cells [5]; [13]): 4.97% | cell viability (SEM cells [5]; [14]): 5.75% | cell viability (SEM cells [5]; [15]): 5.02% | cell viability (SEM cells [5]; [16]): 3.36% | cell viability (SEM cells [5]; [17]): 1.81% | cell viability (SEM cells [5]; [18]): 1.57% | cell viability (SEM cells [5]; [19]): 6.55% | cell viability (SEM cells [5]; [20]): 8.45% | cell viability (SEM cells [5]; [21]): 7.11% | cell viability (SEM cells [5]; [22]): 5.21% | cell viability (SEM cells [5]; [23]): 4.11% | cell viability (SEM cells [5]; [24]): 3.76% | cell viability (SEM cells [5]; [25]): 4.54% | cell viability (SEM cells [5]; [26]): 3.75% | cell viability (SEM cells [5]; [27]): 2.28% | cell viability (SEM cells [5]; [28]): 1.15% | cell viability (SEM cells [5]; [29]): 1.09% | cell viability (SEM cells [5]; [30]): 6.94% | cell viability (SEM cells [5]; [31]): 7.82% | cell viability (SEM cells [5]; [32]): 7.08% | cell viability (SEM cells [5]; [33]): 7.7% | cell viability (SEM cells [5]; [34]): 5.11% | cell viability (SEM cells [5]; [35]): 4.36% | cell viability (SEM cells [5]; [36]): 5.1% | cell viability (SEM cells [5]; [37]): 3.89% | cell viability (SEM cells [5]; [38]): 1.96% | cell viability (SEM cells [5]; [39]): 2.2% | cell viability (SEM cells [5]; [40]): 1.26% | cell viability (P12-Ichikawa [6]; [8]): 8.89% | cell viability (P12-Ichikawa [6]; [9]): 7.61% | cell viability (P12-Ichikawa [6]; [10]): 7.74% | cell viability (P12-Ichikawa [6]; [11]): 7.98% | cell viability (P12-Ichikawa [6]; [12]): 8.48% | cell viability (P12-Ichikawa [6]; [13]): 7.48% | cell viability (P12-Ichikawa [6]; [14]): 8.02% | cell viability (P12-Ichikawa [6]; [15]): 5.74% | cell viability (P12-Ichikawa [6]; [16]): 3.17% | cell viability (P12-Ichikawa [6]; [17]): 4.3% | cell viability (P12-Ichikawa [6]; [18]): 1.52% | cell viability (P12-Ichikawa [6]; [19]): 7.97% | cell viability (P12-Ichikawa [6]; [20]): 8.99% | cell viability (P12-Ichikawa [6]; [21]): 7.91% | cell viability (P12-Ichikawa [6]; [22]): 6.03% | cell viability (P12-Ichikawa [6]; [23]): 5.96% | cell viability (P12-Ichikawa [6]; [24]): 6.1% | cell viability (P12-Ichikawa [6]; [25]): 5.29% | cell viability (P12-Ichikawa [6]; [26]): 3.26% | cell viability (P12-Ichikawa [6]; [27]): 1.15% | cell viability (P12-Ichikawa [6]; [28]): 2.04% | cell viability (P12-Ichikawa [6]; [29]): 1.27% | cell viability (P12-Ichikawa [6]; [30]): 9.93% | cell viability (P12-Ichikawa [6]; [31]): 10.6% | cell viability (P12-Ichikawa [6]; [32]): 9.2% | cell viability (P12-Ichikawa [6]; [33]): 10.8% | cell viability (P12-Ichikawa [6]; [34]): 7.89% | cell viability (P12-Ichikawa [6]; [35]): 8.14% | cell viability (P12-Ichikawa [6]; [36]): 8.28% | cell viability (P12-Ichikawa [6]; [37]): 7.16% | cell viability (P12-Ichikawa [6]; [38]): 6.45% | cell viability (P12-Ichikawa [6]; [39]): 4.57% | cell viability (P12-Ichikawa [6]; [40]): 3.47%

O=C(c1ccc(OCCN2CCCCC2)cc1)c1c(-c2ccc(O)cc2)sc2cc(O)ccc12
AUC of viability dose-response curve (NOMO1 [1]; HPLM + 10% dialyzed FBS): 466 | AUC of viability dose-response curve (NOMO1 [1]; RPMI 5 mM glucose + 10% FBS): 475 | AUC of viability dose-response curve (NOMO1 [1]; [7]): 462 | AUC of viability dose-response curve (SEM cells [2]; HPLM + 10% dialyzed FBS): 413 | AUC of viability dose-response curve (SEM cells [2]; RPMI 5 mM glucose + 10% FBS): 415 | AUC of viability dose-response curve (SEM cells [2]; [7]): 384 | AUC of viability dose-response curve (P12-Ichikawa [3]; HPLM + 10% dialyzed FBS): 442 | AUC of viability dose-response curve (P12-Ichikawa [3]; RPMI 5 mM glucose + 10% FBS): 442 | AUC of viability dose-response curve (P12-Ichikawa [3]; [7]): 413 | cell viability (NOMO1 [4]; [8]): 121% | cell viability (NOMO1 [4]; [9]): 119% | cell viability (NOMO1 [4]; [10]): 134% | cell viability (NOMO1 [4]; [11]): 135% | cell viability (NOMO1 [4]; [12]): 150% | cell viability (NOMO1 [4]; [13]): 145% | cell viability (NOMO1 [4]; [14]): 143% | cell viability (NOMO1 [4]; [15]): 133% | cell viability (NOMO1 [4]; [16]): 123% | cell viability (NOMO1 [4]; [17]): 126% | cell viability (NOMO1 [4]; [18]): 89.9% | cell viability (SEM cells [5]; [19]): 108% | cell viability (SEM cells [5]; [20]): 122% | cell viability (SEM cells [5]; [21]): 122% | cell viability (SEM cells [5]; [22]): 133% | cell viability (SEM cells [5]; [23]): 113% | cell viability (SEM cells [5]; [24]): 42% | cell viability (SEM cells [5]; [25]): 133% | cell viability (SEM cells [5]; [26]): 94.1% | cell viability (SEM cells [5]; [27]): 85.3% | cell viability (SEM cells [5]; [28]): 117% | cell viability (SEM cells [5]; [29]): 68.9%
